Assay [1] has as its system phospho-ERK. Briefly: Cellular phospho-ERK assay. The following applies: NCI-H358 cells, 2 hour incubation, ratio of p-Erk vs total Erk, read-out: IC50 (nM) pERK (Cell). The format is cell-based. The gist of the method:
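NCI-H358 cells seeded overnight, then exposed to compound dose-response titrations for 2 hours at 37° C. in RPMI. Lysates assayed by AlphaLISA SureFire Ultra multiplex for p-Erk and total Erk; ratio p-Erk/total Erk used as readout, IC50 from 4-parameter logistic fit.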

Assay [2] deals with Biotinylated KRAS G12C protein (Homo sapiens (Human), UniProt P01116, C118S/C51S/C80L/G12C). Briefly: SOS-catalyzed nucleotide exchange assay (TR-FRET). The following applies: in vitro apparent potency; preincubation time of 60 minutes prior to addition of SOS. The format is biochemical. The gist of the method:
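Biotinylated KRAS G12C preloaded with Bodipy-GDP and Tb-streptavidin, then incubated with compound (10-point, 3-fold series) for 60 min at RT. Exchange started with SOS and GTP for 60 min. TR-FRET 520/495 ratio normalised to DMSO and saturating-inhibitor controls; four-parameter fit.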

Like-named read-outs stand apart in the source and are kept apart here.

Chain of Biotinylated KRAS G12C protein (P01116 other isoform, or with tags, fused parts or gaps, stated change not applied): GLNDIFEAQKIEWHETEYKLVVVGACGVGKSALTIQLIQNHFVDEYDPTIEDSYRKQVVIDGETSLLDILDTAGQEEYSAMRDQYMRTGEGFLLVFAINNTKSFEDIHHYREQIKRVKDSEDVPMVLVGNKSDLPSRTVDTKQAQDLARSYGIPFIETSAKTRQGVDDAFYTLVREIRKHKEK

For `C=CC(=O)N1C[C@H](C)N(c2nc(=O)n3c4nc(c(F)cc24)-c2c(Cl)cccc2OCCOc2ccnc(C(C)C)c2-3)C[C@H]1C` [Example 83, 17-chloro-2-[(2S,5R)-2,5-dimethyl-4-(prop-2-enoyl)piperazin-1-yl]-20-fluoro-6-(propan-2-yl)-11,12-dihydro-4H-1,18-(ethanediylidene)pyrido[4,3-e]pyrimido[1,6-g][1,4,7,9]benzodioxadiazacyclododecin-4-one], the IC50 came to 8.9 nM in assay [1] (Homo sapiens, NCI-H358, 2 h) and 11 nM in assay [2].
Turning to `C=CC(=O)N1C[C@H](C)N(c2nc(=O)n3c4nc(c(F)cc24)-c2cc(F)c(F)cc2OCCOc2ccnc(C(C)C)c2-3)C[C@H]1C` [Example 84, 2-[(2S,5R)-2,5-dimethyl-4-(prop-2-enoyl)piperazin-1-yl]-15,16,20-trifluoro-6-(propan-2-yl)-11,12-dihydro-4H-1,18-(ethanediylidene)pyrido[4,3-e]pyrimido[1,6-g][1,4,7,9]benzodioxadiazacyclododecin-4-one], the IC50 in assay [1] (Homo sapiens, NCI-H358, 2 h) stood at 119 nM; in assay [2], 38 nM.
As to `C=C(F)C(=O)N1CCN(c2nc(=O)n3c4nc(c(F)cc24)-c2c(F)cccc2OCCCCc2ccnc(C(C)C)c2-3)[C@@H](C)C1` [Example 85, 18,21-difluoro-2-[(2S)-4-(2-fluoroprop-2-enoyl)-2-methylpiperazin-1-yl]-6-(propan-2-yl)-10,11,12,13-tetrahydro-4H-1,19-ethenopyrido[4,3-f]pyrimido[1,6-h][1,8,10]benzoxadiazacyclotridecin-4-one], the IC50 in assay [1] (Homo sapiens, NCI-H358, 2 h) worked out at 198 nM; in assay [2], 47 nM.
`C=CC(=O)N1C[C@H](C)N(c2nc(=O)n3c4nc(c(F)cc24)-c2cc(C(F)(F)F)ccc2OCCOc2ccnc(C(C)C)c2-3)C[C@H]1C` [Example 86, 2-[(2S,5R)-2,5-dimethyl-4-(prop-2-enoyl)piperazin-1-yl]-20-fluoro-6-(propan-2-yl)-16-(trifluoromethyl)-11,12-dihydro-4H-1,18-(ethanediylidene)pyrido[4,3-e]pyrimido[1,6-g][1,4,7,9] benzodioxadiazacyclododecin-4-one]: the IC50 in assay [1] (Homo sapiens, NCI-H358, 2 h) was determined as 389 nM; in assay [2], 64 nM.
`C=CC(=O)N1C[C@H](C)N(c2nc(=O)n3c4nc(c(F)cc24)-c2c(F)ccc(F)c2OCCOc2ccnc(Cl)c2-3)C[C@H]1C` [Example 87, 6-chloro-2-[(2S,5R)-2,5-dimethyl-4-(prop-2-enoyl)piperazin-1-yl]-14,17,20-trifluoro-11,12-dihydro-4H-1,18-ethenopyrido[4,3-e]pyrimido[1,6-g][1,4,7,9] benzodioxadiazacyclododecin-4-one]: the concentration for half-maximal inhibition (IC50) in assay [1] (Homo sapiens, NCI-H358, 2 h) is 3210 nM; in assay [2], 461 nM.
On to `C=CC(=O)N1C[C@H](C)N(c2nc(=O)n3c4nc(c(F)cc24)-c2c(F)cccc2OCCCCc2cnc(C(C)C)c-3c2C)C[C@H]1C` [Example 88, 2-[(2S,5R)-2,5-dimethyl-4-(prop-2-enoyl)piperazin-1-yl]-19,22-difluoro-24-methyl-7-(propan-2-yl)-11,12,13,14-tetrahydro-4H-1,20-etheno-6,10-(metheno)pyrimido[1,6-k][1,8,11,13]benzoxatriazacyclohexadecin-4-one], for which the IC50 was determined as 96 nM in assay [1] and 1.1 nM in assay [2].
As for `C=CC(=O)N1C[C@H](C)N(c2nc(=O)n3c4nc(c(F)cc24)-c2c(ccc(F)c2F)OCCC(C)c2ccnc(C(C)C)c2-3)C[C@H]1C` (stereo partly drawn) [Example 90, 2-[(2S,5R)-2,5-dimethyl-4-(prop-2-enoyl)piperazin-1-yl]-16,17,20-trifluoro-10-methyl-6-(propan-2-yl)-11,12-dihydro-4H,10H-1,18-ethenopyrido[4,3-e]pyrimido[1,6-g][1,7,9]benzoxadiazacyclododecin-4-one], the IC50 in assay [1] (Homo sapiens, NCI-H358, 2 h) was found to be 6.8 nM; in assay [2], 1.4 nM.

The record behind these values is patent US20240043448A1, “Small Molecule Inhibitors of KRAS G12C Mutant” (Merck Sharp & Dohme LLC, priority 2019, published 2024).
